Laboratory results as given in patent US20250032524A1, “BROAD SPECTRUM AMINOGLYCOSIDES AND USES THEREOF” (REVAGENIX, INC., priority 2022, published 2025).
Where two headings read alike, the source gives them in different places.

Assays:
Format in all cases: cell-based
A. baumannii = test: MIC broth microdilution (CLSI); settings: Acinetobacter baumannii
Summary of the method: (§1)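 2-fold serially diluted compound in cation-adjusted MHB, inoculated at 5×10^5 CFU/mL from 0.5 McFarland suspensions. Incubation: 35° C., ambient air, 18-24 hours. Endpoint: no visible growth (OD 600 nm<0.05); assay controlled with CLSI quality-control strains and neomycin.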

C. freundii = test: MIC broth microdilution (CLSI); settings: Citrobacter freundii, read-out: Activity (MIC)
Summary of the method: as §1

E. cloacae = test: MIC broth microdilution (CLSI); settings: Enterobacter cloacae; strain AECL1089, MDR Clinical isolate (CDC CRE panel), CDC AR Bank 0154
Summary of the method: as §1

E. coli = test: MIC broth microdilution (CLSI); settings: Escherichia coli
Summary of the method: as §1

K. aerogenes = test: MIC broth microdilution (CLSI); settings: Klebsiella aerogenes; strain AEAE1042, MDR Clinical isolate (CDC CRE panel), CDC AR Bank 0161
Summary of the method: as §1

K. pneumoniae = test: MIC broth microdilution (CLSI)
Summary of the method: as §1

P. aeruginosa [1] = test: MIC broth microdilution (CLSI); settings: Pseudomonas aeruginosa
Summary of the method: as §1

P. mirabilis = test: MIC broth microdilution (CLSI); settings: Proteus mirabilis; strain APMI1048, MDR Clinical isolate (CDC CRE panel), CDC AR Bank 0159
Summary of the method: as §1

S. aureus = test: MIC broth microdilution (CLSI); settings: for MIC: Staphylococcus aureus
Summary of the method: as §1

S. enterica = test: MIC broth microdilution (CLSI); settings: Salmonella enterica, read-out: Activity (MIC)
Summary of the method: as §1

[2] = test system: A. baumannii-calcoaceticus; test: Antibacterial surveillance of clinical isolates (MIC50/90); settings: 100 isolates
Procedure: (§2) Minimum inhibitory concentrations for representative example compounds herein were determined by a broth microdilution method in accordance with the Clinical and Laboratory Standards Institute (CLSI) guidelines. In brief, organism suspensions were adjusted to a 0.5 McFarland standard to yield a final inoculum between 3×10^5 and 7×10^5 colony-forming units (CFU)/mL. The inoculum was prepared by suspension of a colony from an agar plate that was prepared the previous day. Compound dilutions and inoculum were prepared in sterile, cation adjusted Mueller-Hinton Broth (Beckton Dickinson).
(§3) Bacteria were suspended in sterile saline and added to each assay plate to obtain a final concentration of 5×10^5 CFU/mL. An inoculum volume of 100 μL was added to wells containing 100 μL of broth with 2-fold serial dilutions of the test compound. All inoculated microdilution trays were incubated in ambient air at 35° C. for 18-24 hours. Following incubation, the lowest concentration of the compound that prevented visible growth (OD 600 nm<0.05) is recorded was the MIC. […] Performance of the assay was monitored by the use of laboratory quality-control strains and a standard compound with a defined MIC spectrum (neomycin), in accordance with CLSI guidelines.
(§4) Several compounds of the disclosure (Compound 1, 2, and 3) were further evaluated against several hundred bacterial isolates (isolated in the United States and Europe, 1:1) selected from the SENTRY Antimicrobial Surveillance Program (JMI Laboratories, North Liberty, Iowa). The set of clinical isolates included 300 randomly selected Enterobacterales, 103 randomly selected P. aeruginosa, 100 randomly selected A. baumannii-calcoaceticus, 20 randomly selected Methicillin-sensitive S. aureus (MSSA), and 30 randomly selected Methicillin-resistant S. aureus (MRSA). In addition, 101 Enterobacterales and 50 P. aeruginosa isolates with genetically defined mechanisms of aminoglycoside resistance were included. The MIC values at which ≥50% (MIC50) and ≥90% (MIC90) of isolates within a given set are inhibited were determined for each compound against each set of organisms.

[3] = test system: AG-resistant Enterobacterales; test: as above
Procedure: as §2, §3, §4

[4] = test system: Methicillin-resistant S. aureus (MRSA); test: as above; settings: Staphylococcus aureus, MRSA, 30 isolates
Procedure: as §2, §3, §4

[5] = test system: Methicillin-sensitive S. aureus (MSSA); test: as above; settings: Staphylococcus aureus, MSSA, 20 isolates
Procedure: as §2, §3, §4

P. aeruginosa [6] = test: as above; settings: Pseudomonas aeruginosa, 103 isolates
Procedure: as §2, §3, §4

[7] = test system: all sets of organisms tested (SENTRY clinical isolates); test: Antibacterial surveillance, overall statement; settings: all sets of organisms tested (Table 3); read-out: MIC50,90 values
Procedure: as §2, §3
as §4, with “The MIC values at which ≥50% (MIC50) and ≥90% (MIC90) of isolates within a given set are inhibited were determined for each compound against each set of organisms.” left out

With `NC[C@@H]1CC[C@@H](N)[C@@H](O[C@@H]2[C@@H](N)[C@H](O)[C@@H](NC(=O)[C@@H](O)[C@H](F)CN)[C@H](O)[C@H]2O[C@@H]2O[C@H](CO)[C@@H](O[C@H]3O[C@@H](CN)[C@@H](O)[C@H](O)[C@H]3N)[C@H]2O)O1` [Compound 1, (2R,3R)-4-amino-N-((1R,2S,3S,4R,5R,6S)-3-amino-5-(((2S,3R,4S,5R)-4-(((2R,3R,4R,5S,6S)-3-amino-6-(aminomethyl)-4,5-dihydroxytetrahydro-2H-pyran-2-yl)oxy)-3-hydroxy-5-(hydroxymethyl)tetrahydrofuran-2-yl)oxy)-4-(((2R,3R,6S)-3-amino-6-(aminomethyl)tetrahydro-2H-pyran-2-yl)oxy)-2,6-dihydroxycyclohexyl)-3-fluoro-2-hydroxybutanamide] the MIC (A. baumannii; read-out: Activity (MIC), strain NABA0007, ΔadeJK efflux) was less than 16 µg/mL, the MIC (A. baumannii; read-out: Activity (MIC), strain NABA1427, MDR Clinical isolate) was less than 16 µg/mL and the MIC (A. baumannii; read-out: Activity (MIC), strain NABA1433, MDR Clinical isolate) was less than 16 µg/mL. It also gave an MIC (A. baumannii; read-out: Activity (MIC), strain NABA1434, MDR Clinical isolate) of less than 16 µg/mL, an MIC (A. baumannii; read-out: Activity (MIC), strain NABA1436, MDR Clinical isolate) of less than 16 µg/mL and an MIC (A. baumannii; read-out: Activity (MIC), strain NABA1437, MDR Clinical isolate) of less than 16 µg/mL. It also gave an MIC (A. baumannii; read-out: Activity (MIC), strain NABA1438, MDR Clinical isolate) of less than 16 µg/mL, an MIC (A. baumannii; read-out: Activity (MIC), strain NABA1439, MDR Clinical isolate) of less than 16 µg/mL and an MIC (A. baumannii; read-out: Activity (MIC), strain NABA1448, MDR Clinical isolate) of less than 16 µg/mL. For the same compound, the MIC (A. baumannii; read-out: Activity (MIC), strain NABA1449, MDR Clinical isolate) was less than 16 µg/mL, the MIC (A. baumannii; read-out: Activity (MIC), strain NABA1450, MDR Clinical isolate) was less than 16 µg/mL and the MIC (A. baumannii; strain NABA0006, WT parent, read-out: Activity (MIC)) was less than 16 µg/mL. It also gave an MIC (A. baumannii; strain NABA0020, AME negative strain, read-out: Activity (MIC)) of less than 16 µg/mL, an MIC (C. freundii) of less than 16 µg/mL and an MIC (E. cloacae) of less than 16 µg/mL. The MIC (E. coli; read-out: Activity (MIC), strain AECO1225, MDR Clinical isolate (CDC CRE panel), CDC AR Bank 0118) was less than 16 µg/mL, the MIC (E. coli; read-out: Activity (MIC), strain AECO1226, MDR Clinical isolate (CDC CRE panel), CDC AR Bank 0119) was less than 16 µg/mL and the MIC (E. coli; read-out: Activity (MIC), strain AECO1227, MDR Clinical isolate (CDC CRE panel), CDC AR Bank 0128) was less than 16 µg/mL. The MIC (E. coli; read-out: Activity (MIC), strain NECO0003, ΔtolC) was less than 16 µg/mL, the MIC (E. coli; read-out: Activity (MIC), strain NECO0245, ArmA) was less than 16 µg/mL and the MIC (E. coli; strain NECO0001, WT QC, read-out: Activity (MIC)) was less than 16 µg/mL. For the same compound, the MIC (E. coli; strain NECO0002, WT, read-out: Activity (MIC)) was less than 16 µg/mL, the MIC (E. coli; strain NECO0243, empty vector, read-out: Activity (MIC)) was less than 16 µg/mL and the MIC (E. coli; strain NECO0244, AAC(6')-Ib, read-out: Activity (MIC)) was less than 16 µg/mL. It also gave an MIC (E. coli; strain NECO0289, APH(3')-Ia, read-out: Activity (MIC)) of less than 16 µg/mL, an MIC (E. coli; strain NECO0302, AAC(3)-IIa, read-out: Activity (MIC)) of less than 16 µg/mL and an MIC (E. coli; strain NECO0350, AAC(2')-I, read-out: Activity (MIC)) of less than 16 µg/mL. The MIC (E. coli; strain NECO0359, ANT(4')-Ia, read-out: Activity (MIC)) was less than 16 µg/mL, the MIC (K. aerogenes) was less than 16 µg/mL and the MIC (K. pneumoniae; Klebsiella pneumoniae, strain AKPN1246, MDR Clinical isolate (CDC CRE panel), CDC AR Bank 0139) was less than 16 µg/mL. The “Activity (MIC)” value (K. pneumoniae; strain AKPN1250, MDR Clinical isolate (CDC CRE panel), CDC AR Bank 0143) was “+ (MIC threshold for positive activity (+) is ≤16 μg/mL)”, the “Activity (MIC)” value (K. pneumoniae; strain AKPN1253, MDR Clinical isolate (CDC CRE panel), CDC AR Bank 0148) was “+ (MIC threshold for positive activity (+) is ≤16 μg/mL)” and the “Activity (MIC)” value (K. pneumoniae; strain AKPN1255, MDR Clinical isolate (CDC CRE panel), CDC AR Bank 0153) was “+ (MIC threshold for positive activity (+) is ≤16 μg/mL)”. It also gave an MIC (P. aeruginosa [1]; read-out: Activity (MIC), strain NPAE0006, Efflux KO, Aph(3')-IIb) of less than 16 µg/mL, an MIC (P. aeruginosa [1]; read-out: Activity (MIC), strain NPAE0010, MexXY over-expressed, Aph(3')-IIb) of less than 16 µg/mL and an MIC (P. aeruginosa [1]; read-out: Activity (MIC), strain NPAE1288, MDR Clinical isolate) of less than 16 µg/mL. For the same compound, the MIC (P. aeruginosa [1]; read-out: Activity (MIC), strain NPAE1293, MDR Clinical isolate) was less than 16 µg/mL, the MIC (P. aeruginosa [1]; read-out: Activity (MIC), strain NPAE1299, MDR Clinical isolate) was less than 16 µg/mL and the MIC (P. aeruginosa [1]; read-out: Activity (MIC), strain NPAE1302, MDR Clinical isolate) was less than 16 µg/mL. It also gave an MIC (P. aeruginosa [1]; read-out: Activity (MIC), strain NPAE1303, MDR Clinical isolate) of less than 16 µg/mL, an MIC (P. aeruginosa [1]; read-out: Activity (MIC), strain NPAE1308, MDR Clinical isolate) of less than 16 µg/mL and an MIC (P. aeruginosa [1]; read-out: Activity (MIC), strain NPAE1310, MDR Clinical isolate) of less than 16 µg/mL. For the same compound, the MIC (P. aeruginosa [1]; read-out: Activity (MIC), strain NPAE1313, MDR Clinical isolate) was greater than 16 µg/mL, the MIC (P. aeruginosa [1]; read-out: Activity (MIC), strain NPAE1316, MDR Clinical isolate) was less than 16 µg/mL and the MIC (P. aeruginosa [1]; read-out: Activity (MIC), strain NPAE1323, MDR Clinical isolate) was less than 16 µg/mL. The MIC (P. aeruginosa [1]; strain NPAE0001, WT Aph(3')-IIb, QC, read-out: Activity (MIC)) was less than 16 µg/mL, the MIC (P. aeruginosa [1]; strain NPAE0002, WT Aph(3')-IIb, read-out: Activity (MIC)) was less than 16 µg/mL and the MIC (P. aeruginosa [1]; strain NPAE0359, aph(3')-IIb KO (tetR), read-out: Activity (MIC)) was less than 16 µg/mL. The MIC (P. mirabilis) was less than 16 µg/mL, the MIC (S. aureus; ATCC29213, strain NSAU001, wild-type, QC, ATCC 29213) was less than 16 µg/mL and the MIC (S. aureus; strain NSAU1004, MDR Clinical isolate) was less than 16 µg/mL. The “Activity (MIC)” value (S. aureus; strain NSAU1015, MDR Clinical isolate) was “+ (MIC threshold for positive activity (+) is ≤16 μg/mL)”, the “Activity (MIC)” value (S. aureus; strain NSAU1023, MDR Clinical isolate) was “+ (MIC threshold for positive activity (+) is ≤16 μg/mL)” and the “Activity (MIC)” value (S. aureus; strain NSAU1063, MDR Clinical isolate) was “+ (MIC threshold for positive activity (+) is ≤16 μg/mL)”. It also gave an MIC (S. enterica) of less than 16 µg/mL, an MIC50 ([2]; read-out: MIC50) of less than 16 µg/mL and an MIC90 ([2]; read-out: MIC90) of less than 16 µg/mL. For the same compound, the MIC50 [3] was less than 16 µg/mL, the MIC90 [3] was less than 16 µg/mL and the MIC50 ([4]; read-out: MIC50) was less than 16 µg/mL. It also gave an MIC90 ([4]; read-out: MIC90) of less than 16 µg/mL, an MIC50 ([5]; read-out: MIC50) of less than 16 µg/mL and an MIC90 ([5]; read-out: MIC90) of less than 16 µg/mL. For the same compound, the MIC50 (P. aeruginosa [6]; read-out: MIC50) was less than 16 µg/mL, the MIC90 (P. aeruginosa [6]; read-out: MIC90) was less than 16 µg/mL and the MIC50 [7] was no more than 16 µg/mL.
